Test results reported in US6569866B2, “Sustained-release nalmefene preparations and method” (priority 1996, dated 2003).

Key:
[1] = Expected serum concentration after intranasal nalmefene spray (10 mg/ml solution, 0.1 ml per spray); format: in vivo, human
Procedure: A tartrate, stearate or palmitate formulation of nalmefene may be used, or nalmefene may be in the form of nalmefene hydrochloride, and formulated such that 1 gram of active nalmefene is mixed with 80 ml of distilled water, then adjusted to a pH of approximately 7.4 with dilute sodium hydroxide, and then isotonic saline is added along with a suitable preservative and antibacterial agent, to yield a total volume of 100 ml. This yields a nalmefene solution with a concentration of 10 mg/ml nalmefene. This final solution is passed through a 0.2 micron Millipor filter to remove bacteria and other undesired particles. The filtered solution is then placed aseptically into a container to which is then attached a metered dosing mechanism which allows approximately 0.1 ml to be delivered in each spray. An example of such a metered dosing system in found with the commercially marketed Stadol NS® (Bristol-Myers Squibb Co.). One spray to one nostril may be expected to yield a blood serum concentration of approximately 1 ng/ml 30-90 minutes after administration. […] Alternatively, the human may be given a loading dose of intravenous nalmefene and then transferred to a nasal administration regimen. A practical dosing schedule for nalmefene may be 1.5 mg intranasally every 12 hours. […]

[2] = cited from earlier work
kappa-receptor = kappa-receptor (Homo sapiens, UniProt P41145); settings: Kreek et al.; cited from earlier work
[3] = target: intraspinal kappa receptors (Rattus norvegicus, UniProt P34975); settings: after spinal cord injury; Bakshi et al.; cited from earlier work
[4] = single dose after acute spinal cord injury; Behrmann et al.; cited from earlier work
[5] = per os administration; cited from earlier work

kappa-receptor, sequence (P41145 whole entry): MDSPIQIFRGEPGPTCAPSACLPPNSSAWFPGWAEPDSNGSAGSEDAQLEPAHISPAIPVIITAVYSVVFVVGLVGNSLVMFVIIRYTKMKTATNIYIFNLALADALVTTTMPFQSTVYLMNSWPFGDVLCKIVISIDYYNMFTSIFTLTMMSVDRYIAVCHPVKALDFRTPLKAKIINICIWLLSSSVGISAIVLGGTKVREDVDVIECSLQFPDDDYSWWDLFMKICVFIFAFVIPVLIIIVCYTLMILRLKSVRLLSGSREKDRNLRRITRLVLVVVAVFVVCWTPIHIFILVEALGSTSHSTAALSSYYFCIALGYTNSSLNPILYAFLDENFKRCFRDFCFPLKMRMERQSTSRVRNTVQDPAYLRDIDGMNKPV
intraspinal kappa receptors, sequence (P34975 whole entry): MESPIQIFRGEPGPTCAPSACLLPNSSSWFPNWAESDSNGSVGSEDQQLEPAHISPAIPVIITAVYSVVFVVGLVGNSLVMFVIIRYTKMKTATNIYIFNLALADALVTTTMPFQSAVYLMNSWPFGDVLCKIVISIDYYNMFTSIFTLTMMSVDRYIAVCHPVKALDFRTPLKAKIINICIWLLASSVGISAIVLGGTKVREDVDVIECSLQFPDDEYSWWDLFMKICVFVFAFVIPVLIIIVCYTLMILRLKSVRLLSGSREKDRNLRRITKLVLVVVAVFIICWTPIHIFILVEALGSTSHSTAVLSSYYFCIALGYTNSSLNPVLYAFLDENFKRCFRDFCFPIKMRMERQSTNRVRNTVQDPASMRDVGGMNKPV

C=C1CC[C@@]2(O)[C@H]3Cc4ccc(O)c5c4[C@@]2(CCN3CC2CC2)[C@H]1O5 [nalmefene]
steady state serum concentration ([1]; 5 consecutive 1 mg intranasal doses approximately 11 hours apart): approximately 1 ng/ml
blood serum concentration after one spray ([1]; one 0.1 ml spray of 10 mg/ml solution to one nostril, 30-90 minutes after administration): approximately 1 ng/ml
average volume of distribution (Vd) ([2]; approximate average in non-elderly adult humans): ~8.6 L/kg
serum half life ([2]; in vivo): approximately 10.8 hours
elimination constant (Ke) ([2]; value furnished by a distributor of nalmefene): 0.0642 h⁻¹
potency as kappa-receptor antagonist compared with other antagonists (kappa-receptor): more potent than either naloxone or naltrexone
effect on dynorphin induced motor dysfunction [3]: limits dynorphin induced motor dysfunction
effect on neurological recovery / neuroprotection [4]: significant neuroprotective effect
first pass metabolism [5]: very significant first pass metabolism

O=C1CC[C@@]2(O)[C@H]3Cc4ccc(O)c5c4[C@@]2(CCN3CC2CC2)[C@H]1O5 [naltrexone]
first pass metabolism [5]: very significant first pass metabolism
